These results are taken from patent US10604509B2, “Nrf2 regulators” (GlaxoSmithKline Intellectual Property Development Limited, priority 2015, dated 2020).

Where a name gives a salt, the structure may show the parent alone.

This experiment relates to NQO1 specific enzyme activity in BEAS-2B cells. Nature of the experiment: BEAS-2B NQO1 MTT assay. To be noted: Homo sapiens, BEAS-2B, 48 h, BEAS-2B cells, 48 hours with compound, MTT readout; read-out: EC50 of NQO1 specific activity induction. Format: cell-based. The gist of the method:
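NQO1 specific activity, an NRF2 activation marker, read kinetically as absorbance change at 570 nm for 30 min after MTT cocktail addition to crude lysates of BEAS-2B cells exposed 48 h to compound. Three-parameter fit of Delta OD/min against log concentration gives EC50; lysate portion used for Cell Titer Glo.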
On the technique in general: Tetrazolium dyes change colour on reduction, which living cells bring about.
Turning to `COc1ccc2c(c1)CN(Cc1cc([C@H](CC(=O)O)c3ccc4c(nnn4C)c3C)ccc1C)CC(C)(C)O2` [Example 165, (S)-3-(1,4-Dimethyl-1H-benzo[d][1,2,3]triazol-5-yl)-3-(3-((7-methoxy-2,2-dimethyl-2,3-dihydrobenzo[f][1,4]oxazepin-4(5H)-yl)methyl)-4-methylphenyl)propanoic acid, 0.5 Formic Acid Salt], the EC50 (usually the concentration at which the effect is half-maximal) was in the range of 1 to 10 nM. The result for `COc1ccc2c(c1)CN(Cc1cc([C@@H](CC(=O)O)c3ccc4c(nnn4C)c3C)ccc1C)CC(C)(C)O2` [Example 166, (R)-3-(1,4-Dimethyl-1H-benzo[d][1,2,3]triazol-5-yl)-3-(3-((7-methoxy-2,2-dimethyl-2,3-dihydrobenzo[f][1,4]oxazepin-4(5H)-yl)methyl)-4-methylphenyl)propanoic acid] reads 10 to 100 nM.

`COc1ccc2c(c1)OC(C)(C)CN(Cc1cc([C@@H](CC(=O)O)c3ccc4c(nnn4C)c3C)ccc1C)C2` [Example 167, (R)-3-(1,4-Dimethyl-1H-benzo[d][1,2,3]triazol-5-yl)-3-(3-((8-methoxy-2,2-dimethyl-2,3-dihydrobenzo[f][1,4]oxazepin-4(5H)-yl)methyl)-4-methylphenyl)propanoic acid]: the EC50 is 10 to 100 nM. The value for `COc1ccc2c(c1)OC(C)(C)CN(Cc1cc([C@H](CC(=O)O)c3ccc4c(nnn4C)c3C)ccc1C)C2` [Example 168, (S)-3-(1,4-Dimethyl-1H-benzo[d][1,2,3]triazol-5-yl)-3-(3-((8-methoxy-2,2-dimethyl-2,3-dihydrobenzo[f][1,4]oxazepin-4(5H)-yl)methyl)-4-methylphenyl)propanoic acid] was 10 to 100 nM; that for `Cc1ccc([C@@H](CC(=O)O)c2ccc3c(nnn3C)c2C)cc1CN1Cc2ncccc2OC(C)(C)C1` [Example 169, (R)-3-(1,4-Dimethyl-1H-benzo[d][1,2,3]triazol-5-yl)-3-(3-((2,2-dimethyl-2,3-dihydropyrido[2,3-f][1,4]oxazepin-4(5H)-yl)methyl)-4-methylphenyl)propanoic acid, 0.5 Formic acid salt] was 10 to 100 nM. The result for `Cc1ccc2c(c1)CN(Cc1cc([C@@H](CC(=O)O)c3ccc4c(nnn4C)c3C)ccc1C)CC(C)(C)O2` [Example 175, (R)-3-(1,4-Dimethyl-1H-benzo[d][1,2,3]triazol-5-yl)-3-(4-methyl-3-((2,2,7-trimethyl-2,3-dihydrobenzo[f][1,4]oxazepin-4(5H)-yl)methyl)phenyl)propanoic Acid] reads 10 to 100 nM; that for `Cc1ccc2c(c1)CN(Cc1cc([C@H](CC(=O)O)c3ccc4c(nnn4C)c3C)ccc1C)CC(C)(C)O2` [Example 176, (S)-3-(1,4-Dimethyl-1H-benzo[d][1,2,3]triazol-5-yl)-3-(4-methyl-3-((2,2,7-trimethyl-2,3-dihydrobenzo[f][1,4]oxazepin-4(5H)-yl)methyl)phenyl) propanoic acid], 10 to 100 nM; that for `Cc1ccc([C@@H](CC(=O)O)c2ccc3c(nnn3C)c2C)cc1CN1Cc2cccc(F)c2OC(C)(C)C1` [Example 177, (R)-3-(1,4-Dimethyl-1H-benzo[d][1,2,3]triazol-5-yl)-3-(3-((9-fluoro-2,2-dimethyl-2,3-dihydrobenzo[f][1,4]oxazepin-4(5H)-yl)methyl)-4-methylphenyl)propanoic acid], 10 to 100 nM. The result for `Cc1ccc([C@H](CC(=O)O)c2ccc3c(nnn3C)c2C)cc1CN1Cc2cccc(F)c2OC(C)(C)C1` [Example 178, (S)-3-(1,4-Dimethyl-1H-benzo[d][1,2,3]triazol-5-yl)-3-(3-((9-fluoro-2,2-dimethyl-2,3-dihydrobenzo[f][1,4]oxazepin-4(5H)-yl)methyl)-4-methylphenyl)propanoic acid] reads 10 to 100 nM. For the molecule `Cc1ccc2c(c1)OC(C)(C)CN(Cc1cc([C@@H](CC(=O)O)c3ccc4c(nnn4C)c3C)ccc1C)C2` [Example 179, (R)-3-(1,4-Dimethyl-1H-benzo[d][1,2,3]triazol-5-yl)-3-(4-methyl-3-((2,2,8-trimethyl-2,3-dihydrobenzo[f][1,4]oxazepin-4(5H)-yl)methyl)phenyl) propanoic acid], the EC50 was 10 to 100 nM. On to `Cc1ccc2c(c1)OC(C)(C)CN(Cc1cc([C@H](CC(=O)O)c3ccc4c(nnn4C)c3C)ccc1C)C2` [Example 180, (S)-3-(1,4-Dimethyl-1H-benzo[d][1,2,3]triazol-5-yl)-3-(4-methyl-3-((2,2,8-trimethyl-2,3-dihydrobenzo[f][1,4]oxazepin-4(5H)-yl)methyl)phenyl) propanoic acid], for which the EC50 fell in the range of 10 to 100 nM. As to `Cc1ccc([C@@H](c2ccc3c(nnn3C)c2C)C(C)(C)C(=O)O)cc1CN1CCC[C@H](n2cccn2)C1` [Example 183, (S)-3-(3-(((S)-3-(1H-Pyrazol-1-yl)piperidin-1-yl)methyl)-4-methylphenyl)-3-(1,4-dimethyl-1H-benzo[d][1,2,3]triazol-5-yl)-2,2-dimethylpropanoic Acid], the EC50 lay in the range of 10 to 100 nM.

Turning to `Cc1ccc(C(CC(=O)O)c2ccc3c(nnn3C)c2C)cc1CN1CCCC(S(=O)(=O)c2ccccc2)C1` (stereo not drawn) [Example 185, 3-(1,4-Dimethyl-1H-benzo[d][1,2,3]triazol-5-yl)-3-(4-methyl-3-((3-(phenylsulfonyl)piperidin-1-yl)methyl)phenyl)propanoic Acid], the EC50 fell in the range of 10 to 100 nM. Turning to `Cc1ccc(C(CC(=O)NS(C)(=O)=O)c2ccc3c(nnn3C)c2C)cc1CN1Cc2ccccc2OC(C)(C)C1` (stereo not drawn) [Example 187, 3-(1,4-Dimethyl-1H-benzo[d][1,2,3]triazol-5-yl)-3-(3-((2,2-dimethyl-2,3-dihydrobenzo[f][1,4]oxazepin-4(5H)-yl)methyl)-4-methylphenyl)-N-(methylsulfonyl)propanamide], the EC50 fell in the range of 100 to 1000 nM. As to `CC[C@@H]1CN(Cc2cc([C@@H](c3ccc4c(nnn4CC)c3C)C(C)(C)C(=O)O)ccc2C)Cc2cnccc2O1` [Example 188, (S)-3-(3-(((R)-2-Ethyl-2,3-dihydropyrido[3,4-f][1,4]oxazepin-4(5H)-yl)methyl)-4-methylphenyl)-3-(1-ethyl-4-methyl-1H-benzo[d][1,2,3]triazol-5-yl)-2,2-dimethylpropanoic Acid], the EC50 was under 1 nM.

`CC[C@@H]1CN(Cc2cc([C@H](c3ccc4c(nnn4CC)c3C)C(C)(C)C(=O)O)ccc2C)Cc2cnccc2O1` [Example 189, (R)-3-(3-(((R)-2-ethyl-2,3-dihydropyrido[3,4-f][1,4]oxazepin-4(5H)-yl)methyl)-4-methylphenyl)-3-(1-ethyl-4-methyl-1H-benzo[d][1,2,3]triazol-5-yl)-2,2-dimethylpropanoic Acid]: the half-maximal effective concentration (EC50) lay within 1 to 10 nM. For `CCn1nnc2c(F)c([C@H](c3ccc(C)c(CN4Cc5ncccc5OC(C)(C)C4)c3)[C@@H](C)C(=O)O)ccc21` [Example 190, (2R,3S)-3-(3-((2,2-Dimethyl-2,3-dihydropyrido[2,3-f][1,4]oxazepin-4(5H)-yl)methyl)-4-methylphenyl)-3-(1-ethyl-4-fluoro-1H-benzo[d][1,2,3]triazol-5-yl)-2-methylpropanoic Acid], the EC50 was in the range of 1 to 10 nM. The value for `CC[C@@H]1CN(Cc2cc([C@@H](c3ccc4c(nnn4CC)c3F)[C@@H](C)C(=O)O)ccc2C)Cc2ncccc2O1` [Example 191, (2R,3S)-3-(3-(((R)-2-Ethyl-2,3-dihydropyrido[2,3-f][1,4]oxazepin-4(5H)-yl)methyl)-4-methylphenyl)-3-(1-ethyl-4-fluoro-1H-benzo[d][1,2,3]triazol-5-yl)-2-methylpropanoic acid] was 1 to 10 nM.
